We go through one compound from US12723233B2, “Media and methods for differentiating natural killer cells” (STEMCELL Technologies Canada Inc., priority 2018, dated 2026).

“Also recorded” adds a separate entry of the source.

One series deals with NK cell progenitors. Put plainly: Differentiation of cord blood CD34+-derived NK cell progenitors to CD56+ NK cells (culture days 14-28), flow cytometry and cell counts. In kind it is cell-based, Human. The method, then:
Human CB samples were obtained from Bloodworks NW (Seattle, WA) and CD34^+ cells were isolated using EasySep™ Human Cord Blood CD34 Positive Selection Kit II (STEMCELL Technologies, Catalogue #17896). Obtained in this way the purity of CD34^+ cells is typically higher than 90%.
The wells of a 24-well plate were coated with StemSpan™ Lymphoid Differentiation Coating Supplement (STEMCELL Technologies, Catalogue #09925) and 5000 CD34^+ cells were plated per well. The CD34^+ cells were cultured for up to 14 days in StemSpan™ SFEM II (STEMCELL Technologies, Catalogue #09605, 09655) supplemented with Lymphoid Progenitor Expansion Supplement (STEMCELL Technologies, Catalogue #09915) with media changes every 3-4 days.
After 14 days in culture, CD34^+ cell-derived NK cell progenitors were harvested. 50,000 NK cell progenitors were plated per well of an uncoated tissue culture 24-well plate. The plated NK cell progenitors were cultured for up to two weeks in NK Cell Differentiation medium (i.e StemSpan™ SFEM II (STEMCELL Technologies, Catalog # 09605, 09655) supplemented with NK Cell Differentiation Supplement (STEMCELL Technologies, Catalogue #09950), and cultured for an additional two weeks with media changes every 3-4 days. UM729 or UM171 was added to supplemented NK Cell Differentiation Medium on days 14-28. On day 28 cells were harvested for analysis or downstream applications.
Harvested cells were stained and measured by flow cytometry for expression of the NK cell lineage marker CD56. Dead cells were excluded by light scatter profile and 7-AAD or DRAQ7 staining. The results in FIGS. 1 and 2 at condition “0” (plotted on the x-axis) indicate the frequency and yield of CD56^+ NK cells that result from experiments that follows the protocol described above but in the absence of UM171 or UM729. Cell counts were obtained using the NucleoCounter NC250. Yield was calculated by dividing the resulting cell number by the number of cells initially seeded. Yields of specific cell types were obtained by multiplying total yield by cell frequency.
Cells were cultured as described in Example 1, with the exception that the up to two week culture of NK cell progenitors (i.e. culture days 14-28) in NK Cell Differentiation medium occurred in the presence or absence of UM171 or UM729.
The effects of UM171 and UM729 were tested across a range of concentrations: 0 nM, 50 nM, 100 nM, 150 nM and 200 nM for UM171; and 0 μM, 0.25 μM, 0.5 μM, 1 μM, and 2 μM for UM729.
CD34^+ CB cells were isolated and cultured as described in Example 1 up to the day 14 time point. Day 14 NK cell progenitors were further cultured in NK Cell Differentiation medium, essentially as described in Example 1, except in the absence of an added pyrimidoindole compound but in the presence or absence of 5 μM CH223191.
In general terms: In flow cytometry, cells or beads pass a laser one at a time.

Series [1] has as its system differentiated CD56+ NK cells. Put plainly: Flow cytometry of NK cell, maturity and T cell markers on differentiated CD56+ NK cells at day 28. In kind it is cell-based, Human. As to the method:
CD56^+ NK cells were differentiated as described in Examples 1 and 2 in the presence of 1 μM UM729 and analyzed on day 28 by flow cytometry for the expression of known NK cell markers. Cells were stained with fluorescence-conjugated antibodies against indicated NK cell markers for 15 min at 4° C. Non-specific binding was blocked using FcR blocker and 5% human or rat serum. Dead cells were excluded by light scatter profile and 7-AAD or DRAQ7 staining. Prepared samples were analyzed by flow cytometry.
CD56^+ NK cells were differentiated as described in Examples 1 and 2 in the presence of 1 μM UM729 and analyzed on day 28 by flow cytometry for the expression of known NK cell markers. The cells were stained for the markers described in this Example essentially as described in Example 3. Staining for KIR molecules was performed using a combination of two clones for the antibody, 180704 and HP-MA4, as each recognizes a distinct subset of KIR molecules. Dead cells were excluded by light scatter profile and 7-AAD or DRAQ7 staining.
Production of IFNγ by the differentiated CD56^+ NK cells was also measured. For IFNγ intracellular staining, differentiated CD56^+ NK Cells were stimulated with PMA/Ionomycin for 2 hours. Brefeldin A was added and the cells were incubated for another 2 hours. The cells were harvested and stained for CD56 and Zombie NIR viability dye then fixed, permeabilized and stained for intracellular IFNγ.
CD56^+ NK cells were differentiated as described in Examples 1 and 2 in the presence of pyrimidoindole compounds and analyzed on day 28 by flow cytometry for the expression of a T cell marker. The analyzed cells were stained for CD3 essentially as described in Example 3. Dead cells were excluded by light scatter profile and 7-AAD or DRAQ7 staining.

The next series has as its system K562 target cells. Put plainly: Calcein AM release cytotoxicity assay of differentiated CD56+ NK cells. It counts as cell-based. To be noted: cells differentiated in the presence of 1 μM UM729, day 28; effector to target ratio 5:1, 4 hours. As to the method:
CD56^+ NK cells were differentiated as described in Examples 1 and 2 in the presence of 1 μM UM729 and analyzed on day 28 for their cytotoxicity toward K562 target cells.
For the cytotoxicity assay, the in vitro generated CD56^+ NK cells were co-cultured with Calcein AM labeled K562 cells for 4 hours at a ratio of 5:1 for effector cells (NK cells) to target cells (K562 cells), and supernatants were analysed for the release of fluorescent Calcein from killed target cells.
Peripheral blood (PB) NK cells and Monocytes isolated using EasySep™ (STEMCELL Technologies, Catalogue #17955 and 19359, respectively) were also co-cultured with labelled K562 cells as positive and negative controls, respectively, at the same ratios described above.
To detect spontaneous release of calcein, control wells containing only calcein AM-labeled K562 target cells were set up. The labeled K562 cells were treated with 1% Triton™ X-100 to measure maximum release. After incubation, plates were centrifuged at 500×g for 5 minutes and 100 μL of supernatant was transferred to black plates and analyzed using a SpectraMax® microplate reader (excitation 485 nm/emission 530 nm). Results are expressed as % specific lysis: [(test release−spontaneous release)×100]/(maximum release−spontaneous release).

[2] abbreviates: 1 μM UM729, normalized to STD cultures, n=20.
Where [3] appears, read: tested 0, 0.25, 0.5, 1, 2 μM, days 14-28.
Where [4] appears, read: cells differentiated in the presence of 1 μM UM729, day 28.

Regarding `COC(=O)c1ccc2c(c1)[nH]c1ncnc(NCCCN3CCCCC3)c12` [UM729, methyl 4-((3-(piperidin-1-yl)propyl)amino)-9H-pyrimido[4,5-b]indole-7-carboxylate], in the series on NK cell progenitors (1 μM UM729, 14 days culture of NK cell progenitors, paired t-test p=0.017), the “Frequency of CD56+ NK cells compared to cultures lacking UM729” value is on record as “increased significantly”. Besides, in the series with NK cell progenitors (1 μM UM729, 14 days culture of NK cell progenitors, paired t-test p=0.032), the “Yield of CD56+ NK cells per input cell compared to cultures lacking UM729” value is on record as “increased significantly”. Besides, in the series with NK cell progenitors (setting [2]), the “Increase of average frequency of NK cells compared to culture conditions not including a pyrimidoindole compound” value is recorded as ~ 30% and the “Increase of average yield of NK cells compared to culture conditions not including a pyrimidoindole compound” value turned out to be 2 fold. Besides, in the series on NK cell progenitors (setting [3]), the “Concentration at which frequency of CD56+ NK cells appeared to be highest” value was found to be 1 µM and the “Concentration at which yield of CD56+ NK cells appeared to be highest” value came to 1 µM. In series [1] (setting [4]), the “Analyzed cells co-expressing CD56 and CD16” value is recorded as “approximately 17%”; the “Analyzed cells co-expressing CD56 and CD94” value is “approximately 18%”; the “Analyzed cells co-expressing CD56 and KIR” value is “approximately 10%”; the “Analyzed cells co-expressing CD56 and NKG2D” value is reported as “approximately 50%”. For the same compound, in series [1] (setting [4]), the “Analyzed cells co-expressing CD56 and NKp30” value is “approximately 80%”; the “Analyzed cells co-expressing CD56 and NKp44” value is on record as “approximately 80%”; the “Analyzed cells co-expressing CD56 and NKp46” value is “approximately 70%”. Besides, the “Differentiated CD56+ NK cells expressing intracellular IFNγ upon stimulation” value in series [1] (cells differentiated in the presence of 1 μM UM729, PMA/Ionomycin 2 hours, then Brefeldin A 2 hours) is on record as “approximately 58%”. For the same compound, the “Expression of CD3 among differentiated cells” value in series [1] (cord blood sample of a second donor, 1 μM UM729, day 28) is listed as “virtually absent; also recorded: do not express CD3”. Also, in the series with K562 target cells, the “Cytotoxicity (killing ability) of differentiated NK cells toward K562 target cells” value is given as “able to kill K562 target cells”.
